Data as given in US9321718B2 (CHROMA THERAPEUTICS LTD., priority 2010, dated 2016).

Columns and labels:
[1] = target: T1, human recombinant his-tagged HSP90α (Homo sapiens, UniProt P07900); assay: HSP90 enzyme assay (HTRF, competition with biotinylated Geldanamycin); format: binding; details: IC50 range; read-out: Enzyme Assay
T1 construct: purchased Prospec Technogene #HSP90
How it was run: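 HTRF competition: compounds (5000 to 0.3 nM, 0.5% DMSO) displace 40 nM biotinylated geldanamycin from 40 nM his-tagged HSP90α. Binding was read via Eu-cryptate anti-his/streptavidin-XL FRET after 20 h at room temperature in Hepes pH 7.3 buffer. IC50 was fitted against controls.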

[2] = test system: TNFα release from LPS stimulated THP-1 (hCE-1 +ve) cells; assay: LPS-stimulation of THP-1 cells (TNF-α release); format: cell-based, human; details: Homo sapiens, THP-1; IC50 range; TNF-α after LPS 1 μg/ml, 6 hours; read-out: THP-1 Assay
Protocol: THP-1 cells are plated in […] at a density of 4×10^4 cells/well in V-bottomed 96 well tissue culture treated plates and incubated at 37° C. in 5% CO2 for 16 hours. 2 Hours after the addition of the inhibitor in 100 μl of tissue culture media, the cells are stimulated with LPS (E. Coli strain 005:B5, Sigma) at a final concentration of 1 μg/ml and incubated at 37° C. in 5% CO2 for 6 hours. TNF-α levels are measured from cell-free supernatants by sandwich ELISA (R&D Systems #QTA00B).

[3] = test system: TNF-α levels in LPS-stimulated human whole blood; assay: LPS-stimulation of human whole blood (TNF-α levels); format: cell-based; details: Homo sapiens; IC50 range; TNF-α after LPS 100 ng/ml, 6 hours
Protocol: Whole blood is taken by venous puncture using heparinised vacutainers (Becton Dickinson) and diluted in an equal volume of RPMI1640 tissue culture media (Sigma). 100 μl is then plated in V-bottomed 96 well tissue culture treated plates. 2 Hours after the addition of the inhibitor in 100 μl of RPMI1640 media, the blood is stimulated with LPS (E. Coli strain 005:B5, Sigma) at a final concentration of 100 ng/ml and incubated at 37° C. in 5% CO2 for 6 hours. TNF-α levels are measured from cell-free supernatants by sandwich ELISA (R&D Systems #QTA00B).

| SMILES | IC50 [1] [µM] | IC50 [2] [µM] | IC50 [3] [µM] |
| --- | --- | --- | --- |
| CC(C)c1cc(C(=O)N2Cc3ccc(CN[C@@H](C)C(=O)OC(C)(C)C)cc3C2)c(O)cc1O [Example 56, tert-butyl N-[(2-{[2,4-dihydroxy-5-(propan-2-yl)phenyl]carbonyl}-2,3-dihydro-1H-isoindol-5-yl)methyl]-L-alaninate] | 0.1 to 1 | > 1 | > 1 |
| CC(C)c1cc(C(=O)N(C)Cc2ccc(CN[C@H](C(=O)OC3CCCC3)c3ccccc3)cc2)c(O)cc1O [Example 71, cyclopentyl (2S)-[(4-{[{[2,4-dihydroxy-5-(propan-2-yl)phenyl]carbonyl}(methyl)amino]methyl}benzyl)amino](phenyl)ethanoate] | 0.1 to 1 | 0.1 to 1 | 0.1 to 1 |
| CC(C)C[C@H](NC[C@@H]1CCCN1C(=O)c1cc(C(C)C)c(O)cc1O)C(=O)OC1CCCC1 [Example 75, cyclopentyl N-{[(2S)-1-{[2,4-dihydroxy-5-(propan-2-yl)phenyl]carbonyl}pyrrolidin-2-yl]methyl}-L-leucinate] | > 1 | > 1 | > 1 |
| CC(C)c1cc(C(=O)N2CCC(CCN[C@@H](Cc3ccccc3)C(=O)OC3CCCC3)CC2)c(O)cc1O [Example 40, cyclopentyl N-[2-(1-{[2,4-dihydroxy-5-(propan-2-yl)phenyl]carbonyl}piperidin-4-yl)ethyl]-L-phenylalaninate] | > 1 | 0.1 to 1 | > 1 |
| CC(C)c1cc(C(=O)N2Cc3ccc(CN[C@@H](C)C(=O)OC4CCCC4)cc3C2)c(O)cc1O [Example 59, cyclopentyl N-[(2-{[2,4-dihydroxy-5-(propan-2-yl)phenyl]carbonyl}-2,3-dihydro-1H-isoindol-5-yl)methyl]-L-alaninate] | < 0.1 | < 0.1 | 0.1 to 1 |
| CC(C)c1cc(C(=O)N2CCC(CN[C@@H](COC(C)(C)C)C(=O)OC3CCCC3)CC2)c(O)cc1O [Example 34, cyclopentyl O-tert-butyl-N-[(1-{[2,4-dihydroxy-5-(propan-2-yl)phenyl]carbonyl}piperidin-4-yl)methyl]-L-serinate] | < 0.1 | 0.1 to 1 | 0.1 to 1 |
| CC(C)c1cc(C(=O)N2CCC(CCN[C@H](C(=O)OC3CCCC3)C3CCCCC3)CC2)c(O)cc1O [Example 48, cyclopentyl (2S)-cyclohexyl{[2-(1-{[2,4-dihydroxy-5-(propan-2-yl)phenyl]carbonyl}piperidin-4-yl)ethyl]amino}ethanoate] | 0.1 to 1 | > 1 |  |
| CC(C)C[C@H](NCC1CCN(C(=O)c2cc(C(C)C)c(O)cc2O)CC1)C(=O)OC(C)(C)C [Example 24, tert-butyl N-[(1-{[2,4-dihydroxy-5-(propan-2-yl)phenyl]carbonyl}piperidin-4-yl)methyl]-L-leucinate] | < 0.1 | > 1 |  |
| CC(C)C[C@H](NC1CCCN(C(=O)c2cc(C(C)C)c(O)cc2O)C1)C(=O)OC1CCCC1 (stereo partly drawn) [Example 7, cyclopentyl N-(1-{[2,4-dihydroxy-5-(propan-2-yl)phenyl]carbonyl}piperidin-3-yl)-L-leucinate] | 0.1 to 1 | > 1 |  |
| CC(C)c1cc(C(=O)N2CCC(CN[C@@H](COC(C)(C)C)C(=O)OC(C)(C)C)CC2)c(O)cc1O [Example 35, tert-butyl O-tert-butyl-N-[(1-{[2,4-dihydroxy-5-(propan-2-yl)phenyl]carbonyl}piperidin-4-yl)methyl]-L-serinate] | < 0.1 | > 1 |  |
| CC(C)C[C@@H](NCC1CCN(C(=O)c2cc(C(C)C)c(O)cc2O)CC1)C(=O)OC(C)(C)C [Example 27, tert-butyl N-[(1-{[2,4-dihydroxy-5-(propan-2-yl)phenyl]carbonyl}piperidin-4-yl)methyl]-D-leucinate] | < 0.1 | > 1 |  |
| CC(C)c1cc(C(=O)N2CCC(CCN[C@H](C(=O)OC3CCCC3)C(C)C)CC2)c(O)cc1O [Example 46, cyclopentyl N-[2-(1-{[2,4-dihydroxy-5-(propan-2-yl)phenyl]carbonyl}piperidin-4-yl)ethyl]-L-valinate] | < 0.1 | > 1 |  |
| CC(C)c1cc(C(=O)N2CCC(N[C@H](C(=O)OC3CCCC3)C3CCCCC3)CC2)c(O)cc1O [Example 14, cyclopentyl (2S)-cyclohexyl[(1-{[2,4-dihydroxy-5-(propan-2-yl)phenyl]carbonyl}piperidin-4-yl)amino]ethanoate] | 0.1 to 1 | > 1 |  |
| CC(C)C[C@H](NCCCNCC1CCN(C(=O)c2cc(C(C)C)c(O)cc2O)CC1)C(=O)OC1CCCC1 [Example 126] | < 0.1 | > 1 |  |
| CC(C)c1cc(C(=O)N2CCC(CN[C@@H](Cc3ccccc3)C(=O)OC(C)(C)C)CC2)c(O)cc1O [Example 25, tert-butyl N-[(1-{[2,4-dihydroxy-5-(propan-2-yl)phenyl]carbonyl}piperidin-4-yl)methyl]-L-phenylalaninate] | < 0.1 | > 1 |  |

Second part, the molecule after the results:

| IC50 [1] [µM] | IC50 [2] [µM] | IC50 [3] [µM] | SMILES |
| --- | --- | --- | --- |
| < 0.1 | 0.1 to 1 | 0.1 to 1 | CC(C)C[C@H](NCCC1CCN(C(=O)c2cc(C(C)C)c(O)cc2O)CC1)C(=O)OC1CCCC1 [Example 38, cyclopentyl N-[2-(1-{[2,4-dihydroxy-5-(propan-2-yl)phenyl]carbonyl}piperidin-4-yl)ethyl]-L-leucinate] |
| < 0.1 | > 1 | > 1 | CC(C)c1cc(C(=O)N2CCC(N[C@H](C(=O)OC3CCCC3)c3ccccc3)CC2)c(O)cc1O [Example 4, cyclopentyl (2S)-[(1-{[2,4-dihydroxy-5-(propan-2-yl)phenyl]carbonyl}piperidin-4-yl)amino](phenyl)ethanoate] |
| < 0.1 | 0.1 to 1 | 0.1 to 1 | CC(C)c1cc(C(=O)N2CCC(CN[C@@H](Cc3ccccc3)C(=O)OC3CCCC3)CC2)c(O)cc1O [Example 23, cyclopentyl N-[(1-{[2,4-dihydroxy-5-(propan-2-yl)phenyl]carbonyl}piperidin-4-yl)methyl]-L-phenylalaninate] |
| < 0.1 | < 0.1 | < 0.1 | CC(C)c1cc(C(=O)N2CCC(CN[C@@H](C)C(=O)OC3CCCC3)CC2)c(O)cc1O [Example 22, cyclopentyl N-[(1-{[2,4-dihydroxy-5-(propan-2-yl)phenyl]carbonyl}piperidin-4-yl)methyl]-L-alaninate] |
| < 0.1 | 0.1 to 1 | 0.1 to 1 | CC(C)C[C@H](NCc1ccc2c(c1)CN(C(=O)c1cc(C(C)C)c(O)cc1O)C2)C(=O)OC1CCCC1 [Example 54, cyclopentyl N-[(2-{[2,4-dihydroxy-5-(propan-2-yl)phenyl]carbonyl}-2,3-dihydro-1H-isoindol-5-yl)methyl]-L-leucinate] |
| < 0.1 | 0.1 to 1 | > 1 | CCCC[C@H](NC1CCN(C(=O)c2cc(C(C)C)c(O)cc2O)CC1)C(=O)OC1CCCC1 [Example 10, cyclopentyl N-(1-{[2,4-dihydroxy-5-(propan-2-yl)phenyl]carbonyl}piperidin-4-yl)-L-norleucinate] |
| < 0.1 | < 0.1 | 0.1 to 1 | CC(C)c1cc(C(=O)N2CCC(CCNC(C)(C)C(=O)OC3CCCC3)CC2)c(O)cc1O [Example 44, cyclopentyl N-[2-(1-{[2,4-dihydroxy-5-(propan-2-yl)phenyl]carbonyl}piperidin-4-yl)ethyl]-2-methylalaninate] |
| < 0.1 | 0.1 to 1 | > 1 | CC(C)C[C@H](NCc1cccc(CN(C)C(=O)c2cc(C(C)C)c(O)cc2O)c1)C(=O)OC1CCCC1 [Example 66, cyclopentyl N-(3-{[{[2,4-dihydroxy-5-(propan-2-yl)phenyl]carbonyl}(methyl)amino]methyl}benzyl)-L-leucinate] |
| < 0.1 | 0.1 to 1 | 0.1 to 1 | CC(C)c1cc(C(=O)N2Cc3ccc(CCNC4(C(=O)OC5CCCC5)CCCC4)cc3C2)c(O)cc1O [Example 63, cyclopentyl 1-{[2-(2-{[2,4-dihydroxy-5-(propan-2-yl)phenyl]carbonyl}-2,3-dihydro-1H-isoindol-5-yl)ethyl]amino}cyclopentanecarboxylate] |
| < 0.1 | 0.1 to 1 | 0.1 to 1 | CC(C)c1cc(C(=O)N2Cc3ccc(CNC(C)(C)C(=O)OC4CCCC4)cc3C2)c(O)cc1O [Example 55, cyclopentyl N-[(2-{[2,4-dihydroxy-5-(propan-2-yl)phenyl]carbonyl}-2,3-dihydro-1H-isoindol-5-yl)methyl]-2-methylalaninate] |
| < 0.1 | 0.1 to 1 | 0.1 to 1 | CC(C)c1cc(C(=O)N2CCC(CNC(C)(C)C(=O)OC3CCCC3)CC2)c(O)cc1O [Example 32, cyclopentyl N-[(1-{[2,4-dihydroxy-5-(propan-2-yl)phenyl]carbonyl}piperidin-4-yl)methyl]-2-methyl-L-alaninate] |
